Patent publication US12351565B2, “Aromatic compound and preparation method therefor and use thereof” (SHANGHAI JIANHE PHARMACEUTICAL & TECHNOLOGY CO. LTD., priority 2018, dated 2025)
Where a name gives a salt, the structure may show the parent alone. Read-outs that look alike come from different tables or passages of the source.

Legend:
C57 mice [1] = experiment: Forced swimming experiment, intraperitoneal administration to mice; assay type: in vivo; conditions: for inhibition in vivo at 10 mg/kg: Mus musculus, ip
Procedure: The forced-swimming test is currently the most widely used classic method to evaluate the antidepressant effects of compounds in rodents. […] The time in immobile state of experimental animal is observed and recorded, which can be used to evaluate the effect of antidepressant compounds.
1 h and 24 h after a single intraperitoneal administration of 10 mg/kg, forced swimming tests were respectively carried out to investigate the effects of different compounds on depression-like behaviors of C57 mice.
(§1) Experimental animals were 6-week aged C57 mice, male, and C57 mice were purchased from Shanghai SLAC Laboratory Animal Co., Ltd., with a body weight of 20.45±0.19 g. Before the experiment, they arrived at the Animal Feeding Center of Shanghai Institute of Materia Medica, Chinese Academy of Sciences (Animal Production License: SCXK9[Shanghai]2004-0002, usage license: SYXK[Shanghai]2003-0029), and adapted for 3 days or more in animal facilities. They were bred at 6 animals/cage. The breeding environment was room temperature 23±0.2° C., with 12/12 hours alternation of day and night. Before the behavioral test, the animals should be moved to the behavioral test operation room 2 hours in advance to adapt to the environment and reduce their tension.
Preparation of the test product: each test compound was accurately weighed and dissolved in 0.9% NaCl solution, mixed thoroughly, and prepared as a 1 mg/ml solution, set aside.
(§2) 24 hours before the administration, the mice were placed in a cylindrical tank to adapt to the aquatic environment for 10 min. On the day of the behavioral test, the animals were respectively administered intraperitoneally once at 1 h and 24 h before the behavioral test. The mice were placed individually into a cylindrical glass tank with a height of 30 cm and a diameter of 20 cm. The water depth in the tank was 15 cm, so that the animals could not escape from the glass tank and their feet and tails could not touch the bottom of the tank, the water temperature was 23° C.-25° C. A 6 minute video was taken after the mouse entered into water. Since most animals were very active in the first two minutes, the immobility time in the following 4 minute were calculated (criterion of immobility: the mouse stops struggling in the water, stays still and has small limbs movement to maintain balance or to keep a floating state).
(§3) The antidepressant effect of a compound was evaluated by the ability of the compound to reduce the immobility time of the animal in the forced swimming test as compared with the blank group. The shorter the immobility time of the animal to be tested, the higher the inhibition rate and the stronger the antidepressant activity. Inhibition rate1 h(%)=immobility time(blank, 1 h)−immobility time(administration, 1 h)/immobility time(blank, 1 h)×100% Inhibition rate24 h(%)=immobility time(blank, 24 h)−immobility time(administration, 24 h)/immobility time(blank, 24 h)×100%

C57 mice [2] = experiment: Forced swimming experiment, oral administration to mice; assay type: in vivo; conditions: for 1 h inhibition rate / 24 h inhibition rate: inhibition of immobility time, C57 mice; for 1 h inhibition rate: forced swimming 1 h after single oral (intragastric) 20 mg/kg; for 24 h inhibition rate: forced swimming 24 h after single oral (intragastric) 20 mg/kg
Procedure: 1 h and 24 h after a single oral administration of 20 mg/kg, forced swimming experiments were then carried out to investigate the effects of different compounds on depression-like behavior in C57 mice.
as §1, with “male,” for “male, and”
Preparation of the test product: each test compound was accurately weighed and dissolved in 0.9% NaCl solution, mixed thoroughly, and prepared into 1 mg/ml and 2 mg/ml solutions respectively, and set aside.
as §2, with “intragastrically” for “intraperitoneally”
as §3, with “group.” for “group. The shorter the immobility time of the animal to be tested, the higher the inhibition rate and the stronger the antidepressant activity.”, “rate24h(%)=immobility” for “rate24 h(%)=immobility”

[3] = 1 h, read-out: 1 h inhibition rate
[4] = 24 h, read-out: 24 h inhibition rate

| SMILES | inhibition in vivo at 10 mg/kg (C57 mice [1]; [3]) | inhibition in vivo at 10 mg/kg (C57 mice [1]; [4]) | 1 h inhibition rate (C57 mice [2]) | 24 h inhibition rate (C57 mice [2]) | also measured |
| --- | --- | --- | --- | --- | --- |
| Cl.NC1(c2cc(F)ccc2F)CCCC(O)C1=O (stereo not shown) [Comparative compound 1, reference compound] | 17.4% | 10.6% | – | – | 1 h inhibition rate (C57 mice [1]; inhibition of immobility time, forced swimming 1 h after single intraperitoneal 10 mg/kg, C57 mice): 17.4 ± 0.2%; 24 h inhibition rate (C57 mice [1]; inhibition of immobility time, forced swimming 24 h after single intraperitoneal 10 mg/kg, C57 mice): 10.6 ± 1.2% |
| CNC1(c2cccc(OC(F)(F)F)c2)CCCC(O)C1=O (stereo not shown) [Compound 39, 6-hydroxy-2-methylamino-2-(3-trifluoromethoxyphenyl)cyclohexane-1-one hydrochloride] | 46.6 ± 1% | 49.1 ± 3.7% | – | – | – |
| N#Cc1cccc(C2(N)CCCC(O)C2=O)c1 (stereo not shown) [Compound 53, 3-(1-amino-3-hydroxy-2-oxocyclohexane)benzonitrile trifluoroacetate] | 50.9 ± 2% | 39.6 ± 3.2% | – | – | – |
| Cl.NC1(c2cccc(OC(F)(F)F)c2F)CCCC(O)C1=O (stereo not shown) [Compound 59, 2-amino-2-(2-fluoro-3-(trifluoromethoxy)phenyl)-6-hydroxycyclohexane-1-one hydrochloride] | 32 ± 2.2% | 40.3 ± 4.9% | 28.6 ± 1.8% | 36.1 ± 1.6% | – |
| Cl.N[C@]1(c2cccc(OC(F)(F)F)c2F)CCC[C@H](O)C1=O [Compound 65, (2S,6S)-2-amino-2-(2-fluoro-3-(trifluoromethoxy)phenyl)-6-hydroxycyclohexane-1-one hydrochloride] | – | – | 23.8 ± 0.6% | 32.0 ± 2.9% | – |
| NC1(c2c(F)ccc(F)c2F)CCCC(O)C1=O (stereo not shown) [Compound 71, 2-amino-6-hydroxy-2-(2,3,6-trifluorophenyl)cyclohexane-1-one hydrochloride] | 24.2 ± 4.7% | 57.4 ± 4.4% | – | – | – |
| CNCCC(Oc1ccc(C(F)(F)F)cc1)c1ccccc1 (stereo not shown) [Fluoxetine, fluoxetine, reference compound] | – | – | 2.2 ± 1.2% | 1.8 ± 1.3% | antidepressant effect in the forced swimming experiment (C57 mice [1]; 1 hour and 24 hours, intraperitoneal 10 mg/kg, in words): no obvious antidepressant effect; inhibition in vivo at 10 mg/kg (C57 mice [1]; inhibition of immobility time, forced swimming 1 h after single intraperitoneal 10 mg/kg, C57 mice, read-out: 1 h inhibition rate): -4.6 ± 2.3%; inhibition in vivo at 10 mg/kg (C57 mice [1]; inhibition of immobility time, forced swimming 24 h after single intraperitoneal 10 mg/kg, C57 mice, read-out: 24 h inhibition rate): 4.6 ± 1.8%; antidepressant effect in the forced swimming experiment (C57 mice [2]; 1 hour and 24 hours, oral administration, in words): no antidepressant effect was shown |
